Test results reported in patent US11098010B2 (priority 2017, dated 2021).
Structures can show the parent of a compound that is named as a salt. Where two headings read alike, the source gives them in different places.

Test system: HBV rcDNA in HepDE19 cells
Assay: HepDE19 assay with bDNA quantitation of HBV rcDNA
Format: cell-based, hepatitis B virus (HBV)
[1] = Hepatitis B virus, HepDE19, 168 h, HepDE19 cells, inhibition of rcDNA formation, 7 day incubation, top concentration 25 μM, read-out: DE-19 bDNA EC50
[2] = Hepatitis B virus, HepDE19, 168 h, read-out: DE-19 bDNA EC50 (μM), HepDE19 cells, inhibition of rcDNA formation, 7 day incubation, top concentration 25 μM
[3] = HepDE19 cells, inhibition of rcDNA formation, 7 day incubation, top concentration 25 μM, read-out: DE-19 bDNA EC50
[4] = read-out: DE-19 bDNA EC50, HepDE19 cells, inhibition of rcDNA formation, 7 day incubation, top concentration 25 μM

Cn1cnc(COC(=O)N[C@H]2CCc3c(C(=O)Nc4ccc(F)c(Cl)c4)ccc(F)c32)n1 [Compound 102, O-(1-Methyl-1H-1,2,4-triazol-3-yl)methyl, N—(S)-(4-((3-chloro-4-fluorophenyl)carbamoyl)-7-fluoro-2,3-dihydro-1H-inden-1-yl) carbamate]
EC50 [1]: 0.07 µM

COCCS(=O)(=O)N[C@H]1CCc2c(C(=O)Nc3ccc(F)c(Cl)c3)ccc(F)c21 [Compound 182, (S)—N-(3-Chloro-4-fluorophenyl)-7-fluoro-1-((2-methoxyethyl)sulfonamido)-2,3-dihydro-1H-indene-4-carboxamide]
EC50 [1]: 0.59 µM

O=C(N[C@H]1CCc2c(C(=O)Nc3ccc(F)c(Cl)c3)ccc(F)c21)OC[C@H]1COCCN1 [Compound 139, O—((R)-Morpholin-3-yl)methyl, N—((S)-4-((3-chloro-4-fluorophenyl)carbamoyl)-7-fluoro-2,3-dihydro-1H-inden-1-yl) carbamate Hydrochloride]
EC50 [2]: 0.62 µM

O=C(NC1CSc2c(C(=O)Nc3ccc(F)c(F)c3)ccc(F)c21)OCc1ccccn1 (stereo not shown) [Compound 63, O-Pyridin-2-ylmethyl, N-(7-((3,4-difluorophenyl)carbamoyl)-4-fluoro-2,3-dihydrobenzo[b]thiophen-3-yl) carbamate]
EC50 [3]: > 25 µM

O=C(NC1COc2c(C(=O)Nc3ccc(F)c(Cl)c3)ccc(F)c21)OCc1ccccn1 (single isomer, unassigned) [Compound 192, O-Pyridin-2-ylmethyl, N-(7-((3-chloro-4-fluorophenyl)carbamoyl)-4-fluoro-2,3-dihydrobenzofuran-3-yl)carbamate]
EC50 [4]: 0.31 µM

CNC(=O)N[C@@H]1c2cccc(C(=O)Nc3ccc(F)c(Cl)c3)c2C[C@H]1O [Compound 47, (1R,2R)—N-(3-Chloro-4-fluorophenyl)-2-hydroxy-1-(3-methylureido)-2,3-dihydro-1H-indene-4-carboxamide]
EC50 [2]: 11 µM

O=C(NC1CCc2c(C(=O)Nc3ccc(F)c(Cl)c3)cncc21)OCc1ccccn1 (single isomer, unassigned) [Compound 271, O-Pyridin-2-ylmethyl, N-(4-((3-chloro-4-fluorophenyl)carbamoyl)-6,7-dihydro-5H-cyclopenta[c]pyridin-7-yl)carbamate]
EC50 [1]: 5.7 µM

COc1ccnc(N[C@H]2CCc3c(C(=O)Nc4ccc(F)c(Cl)c4)ccc(F)c32)n1 [Compound 159, (S)—N-(3-Chloro-4-fluorophenyl)-7-fluoro-1-((4-methoxypyrimidin-2-yl)amino)-2,3-dihydro-1H-indene-4-carboxamide]
EC50 [2]: 0.69 µM

COC(=O)N[C@@H]1c2cccc(C(=O)Nc3ccc(F)c(Cl)c3)c2C[C@H]1O [Compound 46, O-Methyl, N-((1R,2R)-4-((3-chloro-4-fluorophenyl)carbamoyl)-2-hydroxy-2,3-dihydro-1H-inden-1-yl) carbamate]
EC50 [2]: 0.7 µM

O=C(NC1CSc2c(C(=O)Nc3ccc(F)c(F)c3)cccc21)OCc1ccccn1 (single isomer, unassigned) [Compound 34, O-Pyridin-2-ylmethyl, N-(7-((3,4-difluorophenyl)carbamoyl)-2,3-dihydrobenzo[b]thiophen-3-yl)carbamate hydrochloride]
EC50 (read-out: DE-19 bDNA EC50, HepDE19 cells, inhibition of rcDNA formation, 7 day incubation, top concentration 25 μM, hydrochloride): > 25 µM

CNC(=O)NC1COc2c(C(=O)Nc3ccc(F)c(Cl)c3)ccc(F)c21 (single isomer, unassigned) [Compound 189, N-(3-Chloro-4-fluorophenyl)-4-fluoro-3-(3-methylureido)-2,3-dihydrobenzofuran-7-carboxamide]
EC50 [4]: 0.45 µM

O=C(NC1CSc2c(C(=O)Nc3ccc(F)c(F)c3)cccc21)OCc1ccccn1 (stereo not shown) [Compound 27, O-pyridin-2-ylmethyl, N-(7-((3,4-difluorophenyl)carbamoyl)-2,3-dihydrobenzo[b]thiophen-3-yl) carbamate]
EC50 [3]: 1.4 µM

O=C(N[C@H]1CCc2c(C(=O)Nc3ccc(F)c(Cl)c3)ccc(F)c21)OCc1ccc(C(F)(F)F)cn1 [Compound 169, O-(5-(Trifluoromethyl)pyridin-2-yl)methyl, N—(S)-(4-((3-chloro-4-fluorophenyl)carbamoyl)-7-fluoro-2,3-dihydro-1H-inden-1-yl) carbamate]
EC50 [2]: 2.2 µM

O=C(N[C@H]1CCc2c(C(=O)Nc3ccc(F)c(Cl)c3)ccc(F)c21)OCCN1CCCCC1 [Compound 147, O-2-(Piperidin-1-yl)ethyl, N—(S)-(4-((3-chloro-4-fluorophenyl)carbamoyl)-7-fluoro-2,3-dihydro-1H-inden-1-yl) carbamate]
EC50 [2]: 1.1 µM

O=C(NC1CCc2c(C(=O)Nc3ccc(F)c(Cl)c3)cncc21)OCc1ccccn1 (stereo not shown) [Compound 269, O-pyridin-2-ylmethyl, N-(4-((3-chloro-4-fluorophenyl)carbamoyl)-6,7-dihydro-5H-cyclopenta[c]pyridin-7-yl) carbamate]
EC50 [3]: 2.3 µM

O=C(Nc1cccnc1)N[C@H]1CCc2c(C(=O)Nc3ccc(F)c(Cl)c3)ccc(F)c21 [Compound 144, (S)—N-(3-Chloro-4-fluorophenyl)-7-fluoro-1-(3-(pyridin-3-yl)ureido)-2,3-dihydro-1H-indene-4-carboxamide]
EC50 [2]: 0.85 µM

O=C(N[C@H]1CCc2c(C(=O)Nc3ccc(F)c(Cl)c3)ccc(F)c21)OC[C@@H]1CCCO1 [Compound 142, O—((S)-Tetrahydrofuran-2-yl)methyl, N—((S)-4-((3-chloro-4-fluorophenyl)carbamoyl)-7-fluoro-2,3-dihydro-1H-inden-1-yl) carbamate]
EC50 [2]: 0.27 µM

O=C(NC1CCc2c(C(=O)Nc3ccc(F)c(Cl)c3)ccnc21)OCc1ccccn1 (stereo not shown) [Compound 266, O-Pyridin-2-ylmethyl, N-(4-((3-chloro-4-fluorophenyl)carbamoyl)-6,7-dihydro-5H-cyclopenta[b]pyridin-7-yl) carbamate]
EC50 [3]: 0.43 µM

Cn1ccc(C(=O)N[C@H]2CCc3c(C(=O)Nc4ccc(F)c(Cl)c4)ccc(F)c32)n1 [Compound 98, (S)—N-(4-((3-Chloro-4-fluorophenyl)carbamoyl)-7-fluoro-2,3-dihydro-1H-inden-1-yl)-1-methyl-1H-pyrazole-3-carboxamide]
EC50 [1]: 0.82 µM

Cc1nccnc1COC(=O)N[C@H]1CCc2c(C(=O)Nc3ccc(F)c(Cl)c3)ccc(F)c21 [Compound 173, O-(3-Methylpyrazin-2-yl)methyl, N—(S)-(4-((3-chloro-4-fluorophenyl)carbamoyl)-7-fluoro-2,3-dihydro-1H-inden-1-yl) carbamate]
EC50 [2]: 0.12 µM

O=C(N[C@@H]1c2cccc(C(=O)Nc3ccc(F)c(F)c3)c2C[C@H]1O)OCc1ccccn1 [Compound 60, O-pyridin-2-ylmethyl, N-((1R,2R)-4-((3,4-difluorophenyl)carbamoyl)-2-hydroxy-2,3-dihydro-1H-inden-1-yl) carbamate]
EC50 [3]: > 25 µM

O=C(N[C@H]1CCc2c(C(=O)Nc3ccc(F)c(Cl)c3)ccc(F)c21)OCc1ccon1 [Compound 82, O-Isoxazol-3-ylmethyl, N—(S)-(4-((3-chloro-4-fluorophenyl)carbamoyl)-7-fluoro-2,3-dihydro-1H-inden-1-yl) carbamate]
EC50 [2]: 0.13 µM

O=C(Nc1ccc(F)c(Cl)c1)c1cccc2c1CN(CCO)S2(=O)=O [Compound 276, N-(3-Chloro-4-fluorophenyl)-2-(2-hydroxyethyl)-2,3-dihydrobenzo[d]isothiazole-4-carboxamide 1,1-dioxide]
EC50 [1]: 1.4 µM

O=C(Nc1ccc(F)c(Cl)c1)c1cccc2c1CCS2(=O)=O [Compound 273, N-(3-Chloro-4-fluorophenyl)-2,3-dihydrobenzo[b]thiophene-4-carboxamide 1,1-dioxide]
EC50 [1]: 0.21 µM

O=C1NC(=O)C2(CCc3c(C(=O)Nc4ccc(F)c(Cl)c4)ccc(F)c32)N1 (single isomer, unassigned) [Compound 258, N-(3-chloro-4-fluoro-phenyl)-7′-fluoro-2,5-dioxo-spiro [imidazolidine-4,1′-indane]-4′-carboxamide]
EC50 [3]: 0.57 µM

CC1(NC(=O)OCc2ccccn2)CCc2c(C(=O)Nc3ccc(F)c(Cl)c3)ccc(F)c21 (stereo not shown) [Compound 225, O-Pyridin-2-ylmethyl, N-(4-((3-chloro-4-fluorophenyl)carbamoyl)-7-fluoro-1-methyl-2,3-dihydro-1H-inden-1-yl) carbamate]
EC50 [3]: 2 µM

O=C(Nc1ccc(F)c(Cl)c1)c1ccc(F)c2c1CC[C@@H]2Nc1ccncn1 [Compound 196, (S)—N-(3-Chloro-4-fluorophenyl)-7-fluoro-1-(pyrimidin-4-ylamino)-2,3-dihydro-1H-indene-4-carboxamide]
EC50 [2]: 0.63 µM

N#Cc1cccc(COC(=O)N[C@H]2CCc3c(C(=O)Nc4ccc(F)c(Cl)c4)ccc(F)c32)n1 [Compound 150, O-(6-Cyanopyridin-2-yl)methyl, N—(S)-(4-((3-chloro-4-fluorophenyl)carbamoyl)-7-fluoro-2,3-dihydro-1H-inden-1-yl)carbamate]
EC50 [1]: 0.15 µM

O=C(NC1CC1)N[C@H]1CCc2c(C(=O)Nc3ccc(F)c(Cl)c3)ccc(F)c21 [Compound 209, (S)—N-(3-Chloro-4-fluorophenyl)-1-(3-cyclopropylureido)-7-fluoro-2,3-dihydro-1H-indene-4-carboxamide]
EC50 [1]: 0.33 µM

O=C(N[C@H]1CCc2c(C(=O)Nc3ccc(F)c(Cl)c3)ccc(F)c21)OC1CC1 [Compound 226, O-cyclopropyl, N—(S)-(4-((3-chloro-4-fluorophenyl)carbamoyl)-7-fluoro-2,3-dihydro-1H-inden-1-yl)carbamate]
EC50 [1]: 0.24 µM

O=C(Nc1ccc(F)c(Cl)c1)c1ccc(F)c2c1CC[C@@H]2NS(=O)(=O)C1CCCC1 [Compound 239, (S)—N-(3-Chloro-4-fluorophenyl)-1-(cyclopentanesulfonamido)-7-fluoro-2,3-dihydro-1H-indene-4-carboxamide]
EC50 [1]: 0.24 µM
